Laboratory results from US20240350643A1, “PROTEIN DEGRADATION AGENT” (SUZHOU KINTOR PHARMACEUTICALS, INC., priority 2021, published 2024).

What was measured:
HL60 cells = test: Anti-proliferation ability of compounds on HL60 cells (CTG); format: cell-based, human; conditions: Homo sapiens, HL-60, 72 h, 3 days, CellTiter-Glo, read-out: HL60 cells Proliferation inhibitory activity
Experimental: II. Activity test 2: Anti-proliferation ability of compounds on HL60 cells: 1 Cell plating
HL60 cells in the logarithmic growth phase were counted and plated evenly in a 96-well transparent bottom white plate at 20000 cells per well and 100 μL per well.
A certain amount of the compounds was weighed and diluted with DMSO to a 10 mM stock solution. The culture mediums corresponding to the cells were taken, and the drugs were diluted to the concentration required by the test, shaken gently and mixed evenly. 50 μl of the gradient dilution of the diluted compound was added to each well of the plated cells, and 50 μL of 0.1% DMSO was added to the control group. The plate was shaken gently, mixed evenly and incubated in a cell culture incubator for 3 days.
• 3.1 The CellTiter-GLo™ (CTG) reagent was taken in advance from the −20° C. refrigerator and equilibrated to room temperature in the dark (white bottle+brown bottle, 1:1 mixing evenly into the brown bottle, for later use). • 3.2 The 96-well plate was taken out and inspected under a microscope for growth situation. • 3.3 The bottom of the 96-well plate was tagged with white paper, and then the plate was wrapped with tin foil paper, shaken at 37° C. at 300 r for 10 min and mixed evenly. • 3.4 50 ul of CTG detection reagent was added to each well, Luminescence signal was detected using a microplate reader, and the inhibition rate was calculated. IC50 values of the compounds were calculated by XLfit software to evaluate the proliferation inhibitory activity on HL60 cells.

c-Myc protein = target: T1, c-Myc protein (Homo sapiens, UniProt P01106); test: Ability of compounds to degrade c-Myc protein in HL60 cells (ELISA); format: cell-based; conditions: HL-60, 1 μM compound, 24 h, read-out: HL60 cells Protein degradation rate (1 μM)
T1 construct: endogenous in cells; host or cells: HL60 cells
Experimental: I Activity test 1: Ability of compounds to degrade c-Myc protein in HL60 cells:
HL60 cells in the exponential growth phase were centrifuged, diluted with fresh culture mediums to 6×10^4 cells/100 μL and plated into a 96-well plate at 100 μL per well.
Preparation of test compounds: the compounds were weighed and diluted with DMSO to a 10 mM stock solution for later use. According to test requirements, drugs were diluted with cell culture mediums, with ten-fold dilutions starting from 10 μM, to achieve 3 concentration gradients: 10 μM, 1 μM and 100 NM; and finally, 1 μL of the drugs (DMSO content: 0.01%) were added to each well. For the blank control group, DMSO was also diluted with cell culture mediums, and finally, 1 μL of the control reagent (DMSO content: 0.01%) was added to each well.
3. Effect of drugs on c-Myc in cells as determined by ELISA
After 24 h of drug action, the culture mediums were removed, and the cells were washed once with ice-cold 1× PBS. PBS was removed, and 100 μL of ice-cold 1× Cell Lysis Buffer plus 1 mM phenylmethylsulfonyl fluoride (PMSF) was added to each well. The plate was incubated on ice for 20 min and centrifuged at 4000 RPM at 4° C. for 10 min for later use.
4. Reagent and antibody preparation in ELISA kit 1× wash buffer • 1). 16 mL of ELISA wash buffer concentrate (25×) was diluted with 384 mL of deionized water or distilled water, labeled as 1× Wash Buffer. • 2). The concentrate and 1× Wash Buffer were stored in the refrigerator. The diluted buffer was used within 14 days.
The cell extraction buffer contains 10 mM Tris (pH 7.4), 100 mM NaCl, 1 mM EDTA, 1 mM EGTA, 1 mM NaF, 20 mM Na4P2O7 2 mM Na3VO4. 1% Triton™ ×-100, 10% glycerol, 0.1% SDS and 0.5% deoxycholate. Immediately before use, PMSF (0.3 M stock solution in DMSO) was added to the buffer to a final concentration of 1 mM.
Standard curve configuration: The standard liquid was diluted using glass or plastic tubes. • 1). Huc-Myc (total) standard liquid (Invitrogen, KH02041) was reconstituted with a standard dilution to 1000 pg/mL. Refer to the standard vial label for instructions. The contents were gently swirled or mixed and then allowed to stand for 10 minutes to ensure complete reconstitution, labeled as 1,000 pg/mL human c-Myc. The standard liquid was used within 1 hour after reconstitution. • 2). 250 μL of standard dilution buffers were added to 7 test tubes respectively labeled 500, 250, 125, 62.5, 31.25, 15,63 and 0 pg/mL. • 3). 250 μL of the 1000 pg/ml standard stock solution was added to the first EP tube to a concentration of 500 pg/mL, vortexed and mixed evenly. 250 μL of the resulting mixture was further pipetted and added to the second EP tube to a concentration of 250 pg/mL. Serial dilutions were performed until the sixth EP tube with a concentration of 15.63 pg/mL. Dilution was not performed on the last EP tube. • 4). The remaining reconstituted standard liquid should be discarded, or aliquoted and frozen at −80° C. for further use. Standards can be frozen and thawed only once without losing immunoreactivity.
1× anti-rabbit IgG HRP solution: 1× anti-rabbit IgG HRP solution was prepared within 15 minutes of use. The anti-rabbit IgG HRP (100×) contained 50% viscous glycerol. To ensure accurate dilutions, the following operations were carried out: 1 For each 8-well test strip used in the test, 10 μl, of the anti-rabbit IgG -IRP (100×) solution was pipetted, wherein the pipette tip was wiped with clean absorbent paper to remove excess solutions, and then the solution was dispensed into a test tube containing 1 mL of HRP diluent and mixed thoroughly. 2. The unused anti-rabbit IgG HRP (100×) was placed in the refrigerator for storage.
50 μL of the standard liquid was added to the appropriate wells and not added to the blank control well. Except for the blank control well, 50 μL of Hu c-Myc (total) detection antibody solution was added to each well and mixed by tapping the side face of the plate. […]

T1 sequence (P01106 whole entry): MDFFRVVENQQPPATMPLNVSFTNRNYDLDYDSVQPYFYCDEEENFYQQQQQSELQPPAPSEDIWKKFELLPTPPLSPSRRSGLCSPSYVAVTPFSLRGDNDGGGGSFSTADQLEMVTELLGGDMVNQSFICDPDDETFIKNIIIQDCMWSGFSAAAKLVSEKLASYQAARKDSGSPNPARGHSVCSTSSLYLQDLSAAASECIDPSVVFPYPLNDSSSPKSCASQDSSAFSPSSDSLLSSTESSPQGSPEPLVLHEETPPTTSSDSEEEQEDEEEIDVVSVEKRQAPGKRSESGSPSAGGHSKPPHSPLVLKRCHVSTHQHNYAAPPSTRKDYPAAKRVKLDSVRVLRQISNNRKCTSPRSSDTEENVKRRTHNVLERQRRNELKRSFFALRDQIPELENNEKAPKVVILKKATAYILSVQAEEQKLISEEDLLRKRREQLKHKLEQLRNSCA

IC50 (HL60 cells) [nM] | inhibition at 1 µM (c-Myc protein) [%] | Compound
432 ± 138 | 60 to 90 | O=C1CCC(N2C(=O)c3ccc(C(=O)NCc4ccc(COCCn5c6ccccc6c6cccnc65)cc4)cc3C2=O)C(=O)N1 (stereo not shown) [A76]
239 ± 35 | 60 to 90 | O=C(Cc1cccc2ccccc12)NCc1ccc(C2(NC(=O)c3ccc4c(c3)C(=O)N(C3CCC(=O)NC3=O)C4=O)CC2)cc1 (stereo not shown) [A137]
43.6 ± 44 | 60 to 90 | O=C1CCC(N2C(=O)c3ccc(C(=O)NCc4ccc(CN(CCn5c6ccccc6c6cccnc65)c5ccccc5)cc4)cc3C2=O)C(=O)N1 (stereo not shown) [A95]
1.4 ± 0.01 | 60 to 90 | O=C(Cc1c(F)ccc2ccccc12)NCc1ccc(CNCc2ccc3c(c2)CN(C2CCC(=O)NC2=O)C3=O)cc1 (stereo not shown) [A195]
69.8 ± 8.8 | 30 to 60 | O=C(Cc1cccc2ccccc12)NCCCCCCNC(=O)c1ccc2c(c1)C(=O)N(C1CCC(=O)NC1=O)C2=O (stereo not shown) [A8]
4.7 ± 2.3 | 60 to 90 | CN(CCn1c2ccccc2c2cccnc21)Cc1ccc(CNC(=O)c2ccc3c(c2)C(=O)N(C2CCC(=O)NC2=O)C3=O)cn1 (stereo not shown) [A130]
0.6 ± 0.1 | 60 to 90 | O=C(Cc1cccc2ccccc12)NCc1ccc(CNCc2ccc3c(c2)CN(C2CCC(=O)NC2=O)C3=O)cc1 (stereo not shown) [A193]
2.1 ± 1.1 | 60 to 90 | CN(CCc1cccc2ccccc12)Cc1ccc(CC(=O)Nc2ccc3c(c2)C(=O)N(C2CCC(=O)NC2=O)C3=O)cc1 (stereo not shown) [A167]
336 ± 30 | 60 to 90 | O=C1CCC(N2C(=O)c3ccc(C(=O)NC[C@H]4CC[C@H](CNC(=O)Nc5nccc6ccccc56)CC4)cc3C2=O)C(=O)N1 (stereo partly shown) [A51]
1.2 ± 0.1 | 60 to 90 | O=C(Cc1c(F)ccc2ccccc12)NCc1ccc(CNC(=O)c2ccc3c(c2)CN(C2CCC(=O)NC2=O)C3=O)cc1 (stereo not shown) [A154]
10.9 ± 4.8 | 60 to 90 | O=C(Cc1c(F)ccc2ccccc12)NCc1ccc(CNC(=O)c2ccc3c(c2)C(=O)N(C2CCC(=O)NC2=O)C3=O)cc1 (stereo not shown) [A35]
7.6 ± 3 | 60 to 90 | CC(C)(NC(=O)Cc1cccc2ccccc12)c1ccc(CNC(=O)c2ccc3c(c2)C(=O)N(C2CCC(=O)NC2=O)C3=O)cc1 (stereo not shown) [A149]
3590 ± 1180 | 30 to 60 | O=C(Cc1cccc2ccccc12)NCCCCCCCCOc1ccc2c(c1)C(=O)N(C1CCC(=O)NC1=O)C2=O (stereo not shown) [A17]
2.7 ± 1.8 | 60 to 90 | O=C(Cn1c2ccccc2c2cccnc21)NCc1ccc(CNC(=O)c2ccc3c(c2)C(=O)N(C2CCC(=O)NC2=O)C3=O)cc1F (stereo not shown) [A108]
0.6 ± 0.3 | 60 to 90 | O=C(Cc1cccc2ccccc12)NCc1ccc(CNC(=O)c2ccc3c(c2)CN(C2CCC(=O)NC2=O)C3=O)cc1 (stereo not shown) [A152]
1710 ± 120 | 30 to 60 | O=C(Cc1cccc2ccccc12)NCc1csc(CNC(=O)c2ccc3c(c2)C(=O)N(C2CCC(=O)NC2=O)C3=O)n1 (stereo not shown) [A135]
171 ± 60.4 | 60 to 90 | N#CCCN(CCn1c2ccccc2c2cccnc21)Cc1ccc(CNC(=O)c2ccc3c(c2)C(=O)N(C2CCC(=O)NC2=O)C3=O)cc1 (stereo not shown) [A93]
0.9 | 60 to 90 | CN(CCc1ccc(Cl)cc1Cl)Cc1ccc(CNC(=O)c2ccc3c(c2)C(=O)N(C2CCC(=O)NC2=O)C3=O)cc1 (stereo not shown) [A100]

IC50 (HL60 cells) [nM] | inhibition at 1 µM (c-Myc protein) [%] | Compound
12 ± 8.1 | 60 to 90 | CN(CCn1c2ccccc2c2cccnc21)Cc1ccc(C(C)(C)NC(=O)c2ccc3c(c2)C(=O)N(C2CCC(=O)NC2=O)C3=O)cc1 (stereo not shown) [A148]
7.7 ± 2.1 | 60 to 90 | O=C(Cn1c2ccccc2c2cccnc21)NCc1ccc(COCc2ccc3c(c2)C(=O)N(C2CCC(=O)NC2=O)C3=O)cc1 (stereo not shown) [A192]
710 ± 40.1 | 60 to 90 | CC(C)(C(=O)NCc1ccc(CNC(=O)c2ccc3c(c2)C(=O)N(C2CCC(=O)NC2=O)C3=O)cc1)c1ccccc1 (stereo not shown) [A69]
24.4 ± 10.4 | 60 to 90 | CC(C)N(CCn1c2ccccc2c2cccnc21)Cc1ccc(CNC(=O)c2ccc3c(c2)C(=O)N(C2CCC(=O)NC2=O)C3=O)cc1 (stereo not shown) [A86]
16.9 ± 2.2 | 60 to 90 | O=C(Cc1cccc2ccccc12)NCc1ccc(COCc2ccc3c(c2)C(=O)N(C2CCC(=O)NC2=O)C3=O)cc1 (stereo not shown) [A191]
9.5 | 60 to 90 | O=C(Cc1cccc2ccccc12)NCc1ccc(C(=O)NCc2ccc3c(c2)C(=O)N(C2CCC(=O)NC2=O)C3=O)cc1 (stereo not shown) [A177]
702 ± 33.8 | 60 to 90 | COc1ccccc1CCC(=O)NCc1ccc(CNC(=O)c2ccc3c(c2)C(=O)N(C2CCC(=O)NC2=O)C3=O)cc1 (stereo not shown) [A63]
3640 ± 895 | 60 to 90 | O=C(Cc1cccc2ccccc12)NCc1ccc(CCNC(=O)c2ccc3c(c2)C(=O)N(C2CCC(=O)NC2=O)C3=O)cc1 (stereo not shown) [A42]
27.9 ± 19.5 | 60 to 90 | O=C(Cc1cccc2ccccc12)NCc1ccc(CC(=O)Nc2ccc3c(c2)C(=O)N(C2CCC(=O)NC2=O)C3=O)cc1 (stereo not shown) [A165]
103 ± 53.2 | 30 to 60 | O=C(Cn1c2ccccc2c2cccnc21)NC[C@H]1CC[C@H](CNC(=O)c2ccc3c(c2)C(=O)N(C2CCC(=O)NC2=O)C3=O)CC1 (stereo partly shown) [A24]
2 ± 0.9 | 60 to 90 | O=C(CN1CCCc2ccccc21)NCc1ccc(CC(=O)Nc2ccc3c(c2)CN(C2CCC(=O)NC2=O)C3=O)cc1 (stereo not shown) [A201]
4.6 | 60 to 90 | CS(=O)(=O)N(CCn1c2ccccc2c2cccnc21)Cc1ccc(CNC(=O)c2ccc3c(c2)C(=O)N(C2CCC(=O)NC2=O)C3=O)cc1 (stereo not shown) [A78]
18.2 ± 11.4 | 60 to 90 | O=C(Cn1c2ccccc2c2cccnc21)NCc1ccc(CNC(=O)c2ccc3c(c2)C(=O)N(C2CCC(=O)NC2=O)C3=O)c(C(F)(F)F)c1 (stereo not shown) [A118]
3.6 ± 0.1 | 60 to 90 | CN(CCn1c2ccccc2c2cccnc21)Cc1ccc(CNC(=O)c2ccc3c(c2)C(=O)N(C2CCC(=O)NC2=O)C3=O)nc1 (stereo not shown) [A127]
178 ± 68.4 | 10 to 30 | O=C1CCC(N2C(=O)c3ccc(CCCCCCC(=O)N(Cc4ccccc4)Cc4ccccc4)cc3C2=O)C(=O)N1 (stereo not shown) [A21]
320 ± 17.6 | 60 to 90 | O=C(CCc1ccccc1Cl)NCc1ccc(CNC(=O)c2ccc3c(c2)C(=O)N(C2CCC(=O)NC2=O)C3=O)cc1 (stereo not shown) [A62]
16.9 | 60 to 90 | O=C(Cn1c2ccccc2c2cccnc21)NCc1ccc(C(=O)NCc2ccc3c(c2)C(=O)N(C2CCC(=O)NC2=O)C3=O)cc1 (stereo not shown) [A178]
